Test system: collagen synthesis in rat pulmonary fibroblast
Assay: Inhibition of collagen synthesis in rat pulmonary fibroblasts (indirect ELISA)
Format: cell-based
Settings: culture of rat pulmonary fibroblast pretreated with acanthoic acid, silica-stimulated; FIG. 7
Procedure: Fibroblasts were separated from rats by using a modification of the method of Phan, S. H., et al. described in J. Clin. Invest., 76, 241(1985), as follows. A rat was anesthetized with ether and its lungs were isolated on the aseptic worktable. The lungs were cut into small pieces in the size ranging from 2 to 4 mm and suspended in phosphate buffered saline(PBS) containing collagenase and 0.5% trypsin to digest the tissues at 37° C. for 2 hours. The suspension was filtered through sterilized gauze to remove undigested tissues, etc. The separated cells were washed with PBS twice or three times and suspended into RPMI 1640 medium(Gibco, Grand Island, N.Y., U.S.A.) containing 10% fetal bovine serum(FBS, Hyclone, Logan, Utah, U.S.A.). […] For the purpose of confirming the ability of acanthoic acid to suppress the action of IL-1 and TNF-α, its inhibitory effect on the collagen synthesis in rat pulmonary fibroblast and pulmonary tissues was determined. The amount of produced collagen in the culture of rat pulmonary fibroblast was measured by an indirect ELISA method, and that of pulmonary tissue was determined by measuring the concentration of hydroxyproline and calculating the amount of collagen therefrom by using the standard curve of internal control group. […]

Structure (SMILES): C=C[C@@]1(C)CC=C2C(CCC3[C@](C)(C(=O)O)CCC[C@@]23C)C1 (single isomer, unassigned; (-)) [acanthoic acid, (-)-pimara-9(11),15-diene-19-oic acid]
- amount of synthesized collagen: decreases significantly

Reference: US5900434A, “Method for inhibiting the production of interleukin-1 or tumor necrosis factor-α by administering acanthoic acid” (Korea Institute of Science and Technology, priority 1994, dated 1999)
